The supplement of paper PMC10307832

Assays:
Test in all cases: relative viability (nuclei count vs DMSO), 5 days (fraction); higher = more cells survive
Cediranib + Trametinib = compound: COc1cc2c(Oc3ccc4[nH]c(C)cc4c3F)ncnc2cc1OCCCN1CCCC1 [Cediranib] + CC(=O)Nc1cccc(-n2c(=O)n(C3CC3)c(=O)c3c(Nc4ccc(I)cc4F)n(C)c(=O)c(C)c32)c1 [Trametinib] (partner 0.02 µM)
How it was run: (§1)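 Five library-drug doses in √10 steps were combined with a fixed anchor-drug dose, or a single drug was given alone, by pin tool to lung cancer cell lines in 1536-well plates the day after seeding. Nuclei were stained and counted after 5 days. Relative viability is the nuclei count in treated wells over that in vehicle wells, taken as the median of duplicate plates.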

Decitabine + Bortezomib = compound: Nc1ncn([C@H]2C[C@H](O)[C@@H](CO)O2)c(=O)n1 [Decitabine] + CC(C)C[C@H](NC(=O)[C@H](Cc1ccccc1)NC(=O)c1cnccn1)B(O)O [Bortezomib] (partner 0.002 µM)
How it was run: as §1

Decitabine + Tozasertib = compound: Nc1ncn([C@H]2C[C@H](O)[C@@H](CO)O2)c(=O)n1 [Decitabine] + Cc1cc(Nc2cc(N3CCN(C)CC3)nc(Sc3ccc(NC(=O)C4CC4)cc3)n2)n[nH]1 [Tozasertib] (partner 0.1 µM)
How it was run: as §1

[1] = compound: O=C(C[C@H]1NCCC[C@@H]1O)Cn1cnc2cc(Br)c(Cl)cc2c1=O (racemic) [Halofuginone] + CC1(C)CCC(c2ccc(Cl)cc2)=C(CN2CCN(c3ccc(C(=O)NS(=O)(=O)c4ccc(N[C@H](CCN5CCOCC5)CSc5ccccc5)c(S(=O)(=O)C(F)(F)F)c4)cc3)CC2)C1 [Navitoclax] (partner 0.5 µM)
How it was run: as §1

| Cell Line | relative viability (Cediranib + Trametinib; first compound 0.04 µM) | relative viability (Cediranib + Trametinib; first compound 0.1265 µM) | relative viability (Cediranib + Trametinib; first compound 0.4 µM) | relative viability (Cediranib + Trametinib; first compound 1.265 µM) | relative viability (Cediranib + Trametinib; first compound 4 µM) | relative viability (Decitabine + Bortezomib; first compound 0.04 µM) | relative viability (Decitabine + Bortezomib; first compound 0.1265 µM) | relative viability (Decitabine + Bortezomib; first compound 0.4 µM) | relative viability (Decitabine + Bortezomib; first compound 1.265 µM) | relative viability (Decitabine + Bortezomib; first compound 4 µM) | relative viability (Decitabine + Tozasertib; first compound 0.04 µM) | relative viability (Decitabine + Tozasertib; first compound 0.1265 µM) | relative viability (Decitabine + Tozasertib; first compound 1.265 µM) | relative viability (Decitabine + Tozasertib; first compound 4 µM) | relative viability ([1]; first compound 0.001 µM) | relative viability ([1]; first compound 0.003162 µM) | relative viability ([1]; first compound 0.01 µM) | relative viability ([1]; first compound 0.03162 µM) | relative viability ([1]; first compound 0.1 µM) | relative viability (Decitabine + Tozasertib; first compound 0.4 µM) |
| --- | --- | --- | --- | --- | --- | --- | --- | --- | --- | --- | --- | --- | --- | --- | --- | --- | --- | --- | --- | --- |
| NCI-H596 | 0.767 | 0.778 | 0.73 | 0.771 | 0.918 | 1.02 | 0.873 | 0.845 | 0.847 | 0.855 | 0.733 | 0.87 | 0.526 | 0.466 | 0.911 | 0.912 | 0.997 | 1 | 0.606 | – |
| NCI-H1437 | 0.521 | 0.449 | 0.509 | 0.625 | 0.621 | 0.38 | 0.324 | 0.313 | 0.221 | 0.203 | 0.358 | 0.363 | 0.201 | 0.17 | 1.09 | 1.13 | 1.06 | 0.976 | 0.436 | 0.281 |
| NCI-H727 | 0.374 | 0.376 | 0.358 | 0.374 | 0.384 | 0.697 | 0.672 | 0.382 | 0.605 | 0.418 | 0.587 | 0.445 | 0.754 | 0.747 | 0.481 | 0.316 | 0.397 | 0.355 | 0.22 | 0.518 |
| PC-3 [JPC-3] | 0.69 | – | 0.681 | 0.708 | 0.662 | – | 0.6 | 0.458 | 0.462 | 0.389 | 0.593 | 0.59 | 0.448 | 0.404 | 0.8 | 0.792 | 0.805 | 0.768 | 0.73 | 0.459 |
| SW 1573 | 0.667 | 0.624 | 0.57 | 0.55 | 0.496 | 0.969 | 0.895 | 0.99 | 0.575 | 0.382 | 0.165 | 0.167 | 0.124 | 0.108 | 1.03 | 1.01 | 0.921 | 0.6 | 0.168 | 0.172 |
| NCI-H2228 | 0.46 | 0.376 | 0.398 | 0.565 | 0.505 | 0.788 | 0.755 | 0.389 | 0.314 | 0.229 | 0.176 | 0.207 | 0.114 | 0.104 | 0.976 | 0.857 | 0.879 | 0.228 | 0.126 | 0.134 |
| NCI-H1650 | 0.574 | 0.606 | 0.541 | 0.54 | 0.393 | 0.18 | 0.166 | 0.185 | 0.201 | 0.187 | 0.247 | 0.297 | 0.169 | 0.193 | 1.37 | 1.23 | 1.18 | 0.815 | 0.166 | 0.289 |
| COR-L 105 | 0.438 | 0.478 | 0.415 | 0.384 | 0.43 | 0.463 | 0.65 | 0.378 | 0.494 | 0.422 | 0.378 | 0.336 | 0.365 | 0.237 | 0.939 | 0.396 | 0.733 | 0.595 | 0.46 | 0.36 |
| LU99A | 0.553 | – | 0.544 | 0.515 | 0.568 | 1.06 | 1.26 | 1.31 | 0.989 | 0.949 | 0.32 | 0.255 | 0.252 | 0.219 | 0.794 | 0.73 | 0.763 | 0.706 | 0.665 | 0.291 |
| H3255 | 0.606 | – | 0.623 | – | 0.567 | 0.294 | 0.751 | 0.479 | 0.521 | 0.705 | – | 0.633 | 0.506 | 0.431 | 0.541 | 0.481 | 0.548 | 0.495 | 0.553 | 0.524 |
| NCI-H1734 | 0.658 | 0.663 | 0.71 | 0.633 | 0.683 | 0.646 | 0.867 | 0.571 | 0.424 | 0.331 | 0.265 | 0.246 | 0.206 | 0.192 | 0.825 | 0.961 | 0.799 | 0.762 | 0.378 | 0.221 |
| NCI-H1915 | 0.318 | 0.308 | 0.3 | 0.307 | 0.272 | 0.379 | 0.279 | 0.197 | 0.183 | 0.184 | 0.274 | 0.224 | 0.175 | 0.189 | 0.776 | 0.785 | 0.8 | 0.756 | 0.771 | 0.174 |
| NCI-H2009 | 0.288 | 0.335 | 0.237 | 0.213 | 0.276 | 0.765 | 0.571 | 0.301 | 0.305 | 0.243 | 0.628 | 0.451 | 0.312 | 0.252 | 1.22 | 1.13 | 1.09 | 1.02 | 0.67 | 0.399 |
| NCI-H1651 | 0.826 | 0.874 | 0.846 | 0.855 | 0.821 | 0.96 | 0.936 | 0.824 | 0.682 | 0.76 | 0.521 | 0.718 | 0.378 | 0.371 | 1.04 | 1.15 | 1.12 | 0.761 | 0.267 | 0.6 |
| HOP-62 | 0.442 | 0.404 | 0.346 | 0.387 | 0.42 | 0.418 | 0.23 | 0.23 | 0.0953 | 0.0952 | 0.226 | 0.229 | 0.108 | 0.104 | 1.14 | 0.785 | 0.933 | 1.04 | 0.873 | 0.141 |
| CAL-12T | 0.443 | 0.362 | 0.319 | 0.248 | 0.341 | 0.828 | 1.01 | 0.535 | 0.558 | 0.543 | 0.292 | 0.268 | 0.21 | 0.219 | 1.54 | 1.37 | 1.24 | 0.974 | 0.565 | – |
